The values that follow come from patent publication US11433136B2, “Polyacetal polymers, conjugates, particles and uses thereof” (THE GENERAL HOSPITAL CORPORATION, priority 2015, dated 2022).

SMILES strings stand for the structures.

The target in one series is CXCR4 (Homo sapiens, UniProt P61073). The settings on record: cited from earlier work.
Series [1] concerns human malignant glioma cells. The settings on record: cited from earlier work.
The next series deals with leiomyoma cell. The settings on record: cultured cells; cited from earlier work.
The subject of series [2] is fibroblast growth and collagen synthesis. The settings on record: cited from earlier work.
For series [3] the following is noted: mouse, in vivo, po, 10 mg/kg. As for the experimental part:
The purpose of this single-dose PK study was to evaluate the in vivo drug release of Can-DPC in 4T1 tumor bearing animals by collecting whole blood, tumor, and liver tissue for bioanalytical quantification of polymer-conjugated and released drug (i.e., candesartan). In this example, the Can-DPC formulation (10 mg/kg) was administrated intravenously as a single bolus and compared directly with the PK profile of candesartan cilexetil administrated by oral gavage (10 mg/kg) using 0.5% HPMC as a vehicle (Table 5).
The mammary fat pads of Balb/C female mice (6-8 weeks old; Taconic) were implanted with syngeneic 4T1 mouse tumor cells (150,000 cells/per animal) obtained from ATCC. Tumors were allowed to develop for 10 days, reaching an average size of 150-450 mm^3 (caliper measurements), before the mice were randomized into three dose groups (Table 5). Following a single administration of the test agents (10 mg/kg) or vehicle alone, whole blood, tumor, and liver tissues were collected at 2, 24, 48 and 144 hrs post dose. In addition, intermediate submandibular bleeds (˜100 μL whole blood) were collected at 5 min, 30 min, 4 hrs, and 6 hrs (n=3 animals per timepoint) following the i.v. and p.o. dosing. […]

CXCR4, sequence (P61073 whole entry, species assumed): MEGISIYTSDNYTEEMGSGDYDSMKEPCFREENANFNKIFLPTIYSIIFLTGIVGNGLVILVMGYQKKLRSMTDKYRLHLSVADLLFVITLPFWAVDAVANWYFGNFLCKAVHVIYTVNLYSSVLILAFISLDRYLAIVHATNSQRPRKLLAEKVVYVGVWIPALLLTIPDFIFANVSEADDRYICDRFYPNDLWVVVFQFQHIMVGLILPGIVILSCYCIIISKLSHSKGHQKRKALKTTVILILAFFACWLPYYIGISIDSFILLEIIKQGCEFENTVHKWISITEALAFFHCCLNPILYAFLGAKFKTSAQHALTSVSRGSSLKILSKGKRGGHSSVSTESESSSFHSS

`c1cc(CN2CCCNCCNCCCNCC2)ccc1CN1CCCNCCNCCCNCC1` [AMD3100, 1,1′-[1,4-phenylene-bis(methylene)]-bis-1,4,8,11-tetraazacyclotetradecane]: the fibrosis entry on CXCR4 was “can reduce fibrosis”. As for `Cc1ccc(=O)n(-c2ccccc2)c1` [PFD, 5-methyl-1-phenyl-2(1H)-pyridone], in series [1], the TGF-b expression entry is on record as “reduce TGF-b expression in human malignant glioma cells”. Moreover, in the series with leiomyoma cell, the “leiomyoma cell proliferation and collagen production” value was “reduce leiomyoma cell proliferation and collagen production in cultured cells”. The “fibroblast growth and collagen synthesis” value in series [2] was “inhibitory effect on fibroblast growth and collagen synthesis”.

For the molecule `CCOc1nc2cccc(C(=O)OC(C)OC(=O)OC3CCCCC3)c2n1Cc1ccc(-c2ccccc2-c2nn[nH]n2)cc1` (centres unmarked) [candesartan cilexetil], in series [3], the candesartan in liver entry was “non-detectable”.
